According to PubChem BioAssay (NCI):
Several values for one entry are separate records, joined by “and”; a condition that tells them apart may be missing. Equal entries are not always repeated.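 These data come from cells grown in 96-well plates and exposed to compound for 48 hours at five concentrations. Abbreviation: GI50, concentration required for 50% inhibition of growth. TGI is the concentration that stops growth completely.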

Assays:
Test in all cases: growth of human tumour cells (NCI), 48 h
A549 NSCLC = tested on: A549 NSCLC
ACHN renal = tested on: ACHN renal
HCC-2998 colon = tested on: HCC-2998 colon
M14 melanoma = tested on: M14 melanoma
OVCAR-3 ovarian = tested on: OVCAR-3 ovarian
OVCAR-8 ovarian = tested on: OVCAR-8 ovarian
SF-539 CNS = tested on: SF-539 CNS
SW-620 colon = tested on: SW-620 colon
UACC-62 melanoma = tested on: UACC-62 melanoma
UO-31 renal = tested on: UO-31 renal

| SMILES | GI50 (A549 NSCLC) | TGI (A549 NSCLC) | GI50 (ACHN renal) | TGI (ACHN renal) | GI50 (HCC-2998 colon) | TGI (HCC-2998 colon) | GI50 (M14 melanoma) | TGI (M14 melanoma) | GI50 (OVCAR-3 ovarian) | TGI (OVCAR-3 ovarian) | GI50 (OVCAR-8 ovarian) | TGI (OVCAR-8 ovarian) | GI50 (SF-539 CNS) | TGI (SF-539 CNS) | GI50 (SW-620 colon) | TGI (SW-620 colon) | GI50 (UACC-62 melanoma) | TGI (UACC-62 melanoma) | GI50 (UO-31 renal) | TGI (UO-31 renal) |
| --- | --- | --- | --- | --- | --- | --- | --- | --- | --- | --- | --- | --- | --- | --- | --- | --- | --- | --- | --- | --- |
| C/C(=N\NC(=S)N1CC2CCC(CC2)C1)c1ccccn1 | 0.064 µM | 1.66 µM | 0.0347 µM | 1.52 µM | 0.171 µM | 1.8 µM | 0.0431 µM | 1.21 µM | < 0.0141 µM | 0.29 µM | < 0.0209 µM | 1.53 µM | 0.257 µM | 2.34 µM | 0.033 µM | 1.57 µM | 0.309 µM | 3.3 µM | 0.021 µM | 1.63 µM |
| CC(O)CC(O)(C(F)(F)F)C(F)(F)F (stereo not drawn) | – | > 10 µM | – | > 10 µM | – | > 10 µM | – | > 10 µM | – | > 10 µM | – | > 10 µM | – | > 10 µM | – | > 10 µM | – | > 10 µM | – | > 10 µM |
| C=CCn1c2c(sc1=S)C(S)N=CN2 (stereo not drawn) | – | > 100 µM | – | > 100 µM | – | > 100 µM | – | > 100 µM | – | > 100 µM | – | > 100 µM | – | > 100 µM | – | > 100 µM | – | > 100 µM | – | > 100 µM |
| C[C@]12CC[C@@H]3c4ccc(O)c([N+](=O)[O-])c4CC[C@H]3[C@@H]1CC[C@@H]2NS(=O)(=O)c1cccc(Br)c1 | 2.81 µM | 8.89 µM | 2.59 µM | 8.17 µM | 2.06 µM | 3.97 µM | 1.91 µM | 4.11 µM | 2.43 µM | 5.64 µM | 2.92 µM | 10.7 µM | 1.55 µM | 3.24 µM | 2.7 µM | 9.42 µM | 1.6 µM | 3.69 µM | 2.19 µM | 5.63 µM |
| OCC(O)CNc1ccnc2cc(Cl)ccc12 (stereo not drawn) | – | > 100 µM | – | > 100 µM | – | > 100 µM | – | > 100 µM | – | > 100 µM | – | > 100 µM | – | > 100 µM | – | > 100 µM | – | > 100 µM | – | > 100 µM |
| [F][Sn]([F])([c]1ccccc1)[c]1ccccc1 | 2.33 µM | 6.45 µM | 1.6 µM | 2.97 µM | 1.63 µM | 3.04 µM | 2.08 µM | 4.45 µM | 1.59 µM | 3 µM | 2.05 µM | 4.88 µM | 2.13 µM | 4.09 µM | 1.36 µM | 3.02 µM | 1.77 µM | 5.15 µM | 1.92 µM | 3.34 µM |
| CCOc1ccccc1NC(=O)C(=O)Cc1nc2ccccc2s1 | – | > 100 µM | – | > 100 µM | – | > 100 µM | – | > 100 µM | – | > 100 µM | – | > 100 µM | – | > 100 µM | – | > 100 µM | – | > 100 µM | – | > 100 µM |
| O=c1[nH]c(=O)n([C@H]2CCCO2)cc1F | 625 µM | > 5000 µM | 2600 µM | > 5000 µM | 1010 µM | > 3020 µM | 1450 µM | > 5000 µM | 1650 µM | > 5000 µM | 2270 µM | > 5000 µM | 374 µM | 864 µM and 3520 µM | 1430 µM | > 5000 µM | 2040 µM | > 5000 µM | – | > 5000 µM |
| N#CC(C(=O)CCC(=O)Nc1cccc(C(F)(F)F)c1)c1ccc(Cl)cc1 (stereo not drawn) | – | > 100 µM | – | > 100 µM | – | > 100 µM | – | > 100 µM | – | > 100 µM | – | > 100 µM | – | > 100 µM | – | > 100 µM | – | > 100 µM | – | > 100 µM |
| O=C(NCc1ccc(S(=O)(=O)c2cc(F)cc(F)c2)cc1)c1ccc2nccn2c1 | 9.59 µM | > 100 µM | 21.1 µM | > 100 µM | 14.6 µM | > 100 µM | < 0.0108 µM | > 100 µM | 1.32 µM | > 100 µM | < 0.01 µM | > 100 µM | < 0.01 µM | > 42.9 µM | < 0.01 µM | > 100 µM | > 51 µM | > 100 µM | > 44.8 µM | > 100 µM |
| COC(=O)CCC1=C(CC(=O)OC)C(C)=N/C1=C\c1[nH]c(-c2ccc[nH]2)cc1OC | 3.34 µM | 13 µM | 4.26 µM | 15.6 µM | 3.46 µM | 15.6 µM | 4.51 µM | 16.2 µM | 2.43 µM | 10.2 µM | 2.92 µM | 11.4 µM | 5.63 µM | 20.6 µM | 3.63 µM | 18 µM | 3.09 µM | 11.5 µM | 3.44 µM | 14.7 µM |
| Nc1nc(N)c2cc(CNc3ccc(C(=O)NC(CC(=O)O)C(=O)O)c(Cl)c3)ccc2n1 (stereo not drawn) | 0.05 µM | > 500 µM | 0.05 µM | > 500 µM | – | > 77.5 µM | 0.05 µM | > 500 µM | 177 µM | > 500 µM | 0.05 µM | > 500 µM | 0.05 µM | > 500 µM | 0.05 µM | > 500 µM | 0.05 µM | > 500 µM | 0.244 µM | > 500 µM |
| CC1=C(c2cc(C(=O)Nc3ccc(Cl)cc3)nc(=S)[nH]2)Sc2ccccc2N1 | – | > 100 µM | – | > 100 µM | – | > 100 µM | – | > 100 µM | – | > 100 µM | – | > 100 µM | – | > 100 µM | – | > 100 µM | – | > 100 µM | – | > 100 µM |
| COC(=O)/C(=C\c1ccc(N(CCC#N)CCC#N)cc1)NC(=O)c1cc([N+](=O)[O-])ccc1Cl | – | > 100 µM | – | > 100 µM | – | > 100 µM | – | > 100 µM | – | > 100 µM | – | > 100 µM | – | > 100 µM | – | > 100 µM | – | > 100 µM | – | > 100 µM |
| CCCCCCCCCCCCOC1C(C(CC(=O)NCCN2CCCC2)NS(=O)(=O)c2cc(Cl)cc(Cl)c2)OC2OC(C)(C)OC21 (stereo not drawn) | 2.5 µM | 6.41 µM | 1.9 µM | 3.37 µM | 2.14 µM | 4.56 µM | 1.71 µM | 3.45 µM | 1.87 µM | 3.72 µM | 2.21 µM | 4.88 µM | 2.01 µM | 3.48 µM | 1.98 µM | 3.63 µM | 1.85 µM | 3.3 µM | 1.9 µM | 3.44 µM |
